# Values quoted from earlier work in publication PMC7770979 (Molecular Metabolism, 2020).
# System: IR
substance,measurement,value
SerA12 substitution by alanine: insulin with SerA12 substitution by alanine (ref 34),"Affinity to IR, % of insulin",36%
